Laboratory results reported in ChEMBL document CHEMBL4411284, “Discovery of novel quaternary ammonium compounds based on quinuclidine-3-ol as new potential antimicrobial candidates” (Eur J Med Chem, 2019).
Activity calls are given as the source filed them. No cut-off for these calls is given here.

Key:
Staphylococcus aureus [1] = assay: Antimicrobial activity against Staphylococcus aureus ATCC 29213 after 24 to 48 hrs by broth microdilution assay; format: functional
Staphylococcus aureus [2] = assay: Antimicrobial activity against methicillin-resistant Staphylococcus aureus clinical isolate after 24 to 48 hrs by broth microdilution assay; format: functional
Enterococcus faecalis [3] = assay: Antimicrobial activity against Enterococcus faecalis ATCC 29212 after 24 to 48 hrs by broth microdilution assay; format: functional
Streptococcus pyogenes [4] = assay: Antimicrobial activity against Streptococcus pyogenes ATCC 19615 after 24 to 48 hrs by broth microdilution assay; format: functional
Listeria monocytogenes [5] = assay: Antimicrobial activity against Listeria monocytogenes ATCC 19111 (1/2a) after 24 to 48 hrs by broth microdilution assay; format: functional
Escherichia coli [6] = assay: Antimicrobial activity against Escherichia coli ATCC 25922 after 24 to 48 hrs by broth microdilution assay; format: functional
Escherichia coli [7] = assay: Antimicrobial activity against Escherichia coli clinical isolate after 24 to 48 hrs by broth microdilution assay; format: functional
Klebsiella pneumoniae [8] = assay: Antimicrobial activity against Klebsiella pneumoniae ATCC 13883 after 24 to 48 hrs by broth microdilution assay; format: functional
Klebsiella pneumoniae [9] = assay: Antimicrobial activity against Klebsiella pneumoniae clinical isolate after 24 to 48 hrs by broth microdilution assay; format: functional
Salmonella typhimurium [10] = assay: Antimicrobial activity against Salmonella typhimurium WDCM 00031 after 24 to 48 hrs by broth microdilution assay; format: functional, Salmonella enterica subsp. enterica serovar Typhimurium; settings: Salmonella enterica
Pseudomonas aeruginosa [11] = assay: Antimicrobial activity against Pseudomonas aeruginosa ATCC 27853 after 24 to 48 hrs by broth microdilution assay; format: functional
Acinetobacter baumannii [12] = assay: Antimicrobial activity against Acinetobacter baumannii ATCC 19606 after 24 to 48 hrs by broth microdilution assay; format: functional; settings: ATCC 19606 = CIP 70.34 = JCM 6841
Acinetobacter baumannii [13] = assay: Antimicrobial activity against Acinetobacter baumannii clinical isolate after 24 to 48 hrs by broth microdilution assay; format: functional
Candida albicans = assay: Antifungal activity against Candida albicans ATCC 90029 after 24 to 48 hrs by broth microdilution assay; format: functional
Aspergillus niger = assay: Antifungal activity against Aspergillus niger after 24 to 48 hrs by broth microdilution assay; format: functional
Penicillium citrinum = assay: Antifungal activity against Penicillium citrinum after 24 to 48 hrs by broth microdilution assay; format: functional
Staphylococcus aureus [14] = assay: Bactericidal activity against Staphylococcus aureus ATCC 29213 preincubated for 24 to 48 hrs followed by replating on MHA plates and measured after 18 hrs by broth microdilution assay; format: functional
Staphylococcus aureus [15] = assay: Bactericidal activity against methicillin-resistant Staphylococcus aureus clinical isolate preincubated for 24 to 48 hrs followed by replating on MHA plates and measured after 18 hrs by broth microdilution assay; format: functional
Enterococcus faecalis [16] = assay: Bactericidal activity against Enterococcus faecalis ATCC 29212 preincubated for 24 to 48 hrs followed by replating on MHA plates and measured after 18 hrs by broth microdilution assay; format: functional
Streptococcus pyogenes [17] = assay: Bactericidal activity against Streptococcus pyogenes ATCC 19615 preincubated for 24 to 48 hrs followed by replating on MHA plates and measured after 18 hrs by broth microdilution assay; format: functional
Listeria monocytogenes [18] = assay: Bactericidal activity against Listeria monocytogenes ATCC 19111 (1/2a) preincubated for 24 to 48 hrs followed by replating on MHA plates and measured after 18 hrs by broth microdilution assay; format: functional
Escherichia coli [19] = assay: Bactericidal activity against Escherichia coli ATCC 25922 preincubated for 24 to 48 hrs followed by replating on MHA plates and measured after 18 hrs by broth microdilution assay; format: functional
Escherichia coli [20] = assay: Bactericidal activity against Escherichia coli clinical isolate preincubated for 24 to 48 hrs followed by replating on MHA plates and measured after 18 hrs by broth microdilution assay; format: functional
Klebsiella pneumoniae [21] = assay: Bactericidal activity against Klebsiella pneumoniae ATCC 13883 preincubated for 24 to 48 hrs followed by replating on MHA plates and measured after 18 hrs by broth microdilution assay; format: functional
Klebsiella pneumoniae [22] = assay: Bactericidal activity against Klebsiella pneumoniae clinical isolate preincubated for 24 to 48 hrs followed by replating on MHA plates and measured after 18 hrs by broth microdilution assay; format: functional
Salmonella typhimurium [23] = assay: Bactericidal activity against Salmonella typhimurium WDCM 00031 preincubated for 24 to 48 hrs followed by replating on MHA plates and measured after 18 hrs by broth microdilution assay; format: functional, Salmonella enterica subsp. enterica serovar Typhimurium; settings: Salmonella enterica
Pseudomonas aeruginosa [24] = assay: Bactericidal activity against Pseudomonas aeruginosa ATCC 27853 preincubated for 24 to 48 hrs followed by replating on MHA plates and measured after 18 hrs by broth microdilution assay; format: functional
Acinetobacter baumannii [25] = assay: Bactericidal activity against Acinetobacter baumannii ATCC 19606 preincubated for 24 to 48 hrs followed by replating on MHA plates and measured after 18 hrs by broth microdilution assay; format: functional; settings: ATCC 19606 = CIP 70.34 = JCM 6841
Acinetobacter baumannii [26] = assay: Bactericidal activity against Acinetobacter baumannii clinical isolate preincubated for 24 to 48 hrs followed by replating on MHA plates and measured after 18 hrs by broth microdilution assay; format: functional
Staphylococcus aureus [27] = assay: Growth inhibition in Staphylococcus aureus ATCC 29213 at 1/4 to 1/2 times MIC after 6 hrs; format: functional, organism-based
Staphylococcus aureus [28] = assay: Antibiofilm activity against Staphylococcus aureus ATCC 29213 at 1/32 to 1/2 times MIC after 3 days by crystal violet staining based assay relative to control; format: functional
Staphylococcus aureus [29] = assay: Antibiofilm activity against Staphylococcus aureus ATCC 29213 after 3 days by crystal violet staining based assay; format: functional, organism-based
Staphylococcus aureus [30] = assay: Induction of morphological changes in Staphylococcus aureus ATCC 29213 assessed as cell wall damage at MIC after 1 hr by atomic force microscopic analysis; format: functional, organism-based
Staphylococcus aureus [31] = assay: Induction of morphological changes in Staphylococcus aureus ATCC 29213 assessed as cell wall damage at MIC after 3 hrs by atomic force microscopic analysis; format: functional, organism-based
Staphylococcus aureus [32] = assay: Induction of morphological changes in Staphylococcus aureus ATCC 29213 assessed as cell wall damage at 8 times MIC after 1 hr by atomic force microscopic analysis; format: functional, organism-based
Staphylococcus aureus [33] = assay: Induction of membrane lysis in Staphylococcus aureus ATCC 29213 at 0.5 to 1 times MIC by spectroflurometric analysis based propidium iodide uptake assay; format: functional, organism-based
Staphylococcus aureus [34] = assay: Induction of membrane lysis in Staphylococcus aureus ATCC 29213 at 4 to 8 times MIC by spectroflurometric analysis based propidium iodide uptake assay; format: functional, organism-based
Staphylococcus aureus [35] = assay: Antimicrobial activity against Staphylococcus aureus ATCC 29213 assessed as bacterial membrane disruption by measuring dead cells at MIC after 15 mins by thiazole orange/propidium iodide staining based flow cytometric analysis (reference value: 3.22%); format: functional
Staphylococcus aureus [36] = assay: Antimicrobial activity against Staphylococcus aureus ATCC 29213 assessed as bacterial membrane disruption by measuring live cells at MIC after 15 mins by thiazole orange/propidium iodide staining based flow cytometric analysis (reference value: 88.47%); format: functional
Staphylococcus aureus [37] = assay: Antimicrobial activity against Staphylococcus aureus ATCC 29213 assessed as bacterial membrane disruption by measuring dead cells at 4 times MIC after 15 mins by thiazole orange/propidium iodide staining based flow cytometric analysis (reference value: 3.22%); format: functional
Staphylococcus aureus [38] = assay: Antimicrobial activity against Staphylococcus aureus ATCC 29213 assessed as bacterial membrane disruption by measuring live cells at 4 times MIC after 15 mins by thiazole orange/propidium iodide staining based flow cytometric analysis (reference value: 88.47%); format: functional
Staphylococcus aureus [39] = assay: Antimicrobial activity against Staphylococcus aureus ATCC 29213 assessed as dead cells at 4 times MIC by fluorescence microscopic analysis; format: functional, organism-based
Staphylococcus aureus [40] = assay: Antimicrobial activity against Staphylococcus aureus ATCC 29213 assessed as live cells at MIC by fluorescence microscopic analysis; format: functional, organism-based
HEK293 = assay: Cytotoxicity against HEK293 cells assessed as reduction in cell viability after 48 hrs by MTS assay; format: cell-based; settings: Homo sapiens, HEK293, 48 h
TERT-RPE1 = assay: Cytotoxicity against human RPE1 cells assessed as reduction in cell viability after 48 hrs by MTS assay; format: cell-based; settings: RPE-1, 48 h

With CCCCCCCCCC[N+]12CCC(CC1)C(O)C2.[Br-] (stereo not given) the MIC (Staphylococcus aureus [1]) was 125 µg/mL, the MIC (Staphylococcus aureus [2]) was 500 µg/mL and the MIC (Enterococcus faecalis [3]) was 250 µg/mL. The MIC (Streptococcus pyogenes [4]) was 15.6 µg/mL, the MIC (Listeria monocytogenes [5]) was 250 µg/mL and the MIC (Escherichia coli [6]) was 250 µg/mL. The MIC (Escherichia coli [7]) was 500 µg/mL, the MIC (Klebsiella pneumoniae [8]) was 1000 µg/mL and the MIC (Klebsiella pneumoniae [9]) was 1000 µg/mL. It also gave an MIC (Salmonella typhimurium [10]) of 1000 µg/mL, an MIC (Pseudomonas aeruginosa [11]) of 2000 µg/mL and an MIC (Acinetobacter baumannii [12]) of 1000 µg/mL. It also gave an MIC (Acinetobacter baumannii [13]) of 500 µg/mL, an MIC50 (Candida albicans) of 31.2 µg/mL and an MIC90 (Candida albicans) of 62.5 µg/mL. It also gave an MIC50 (Aspergillus niger) of 125 µg/mL, an MIC90 (Aspergillus niger) of 250 µg/mL and an MIC50 (Penicillium citrinum) of 250 µg/mL. For the same molecule, the MIC90 (Penicillium citrinum) was 500 µg/mL, the MBC (Staphylococcus aureus [14]) was 125 µg/mL and the MBC (Staphylococcus aureus [15]) was 500 µg/mL. For the same molecule, the MBC (Enterococcus faecalis [16]) was 250 µg/mL, the MBC (Streptococcus pyogenes [17]) was 15.6 µg/mL and the MBC (Listeria monocytogenes [18]) was 250 µg/mL. For the same molecule, the MBC (Escherichia coli [19]) was 250 µg/mL, the MBC (Escherichia coli [20]) was 500 µg/mL and the MBC (Klebsiella pneumoniae [21]) was 1000 µg/mL. The MBC (Klebsiella pneumoniae [22]) was 1000 µg/mL, the MBC (Salmonella typhimurium [23]) was 1000 µg/mL and the MBC (Pseudomonas aeruginosa [24]) was 2000 µg/mL. For the same molecule, the MBC (Acinetobacter baumannii [25]) was 1000 µg/mL and the MBC (Acinetobacter baumannii [26]) was 1000 µg/mL.
CCCCCCCCCCCCCC[N+]12CCC(CC1)C(O)C2.[Br-] (stereo not given) showed an MIC (Staphylococcus aureus [1]) of 0.97 µg/mL, an MIC (Staphylococcus aureus [2]) of 3.9 µg/mL and an MIC (Enterococcus faecalis [3]) of 0.97 µg/mL. The MIC (Streptococcus pyogenes [4]) was 0.06 µg/mL, the MIC (Listeria monocytogenes [5]) was 3.9 µg/mL and the MIC (Escherichia coli [6]) was 3.9 µg/mL. It also gave an MIC (Escherichia coli [7]) of 15.6 µg/mL, an MIC (Klebsiella pneumoniae [8]) of 15.6 µg/mL and an MIC (Klebsiella pneumoniae [9]) of 15.6 µg/mL. It also gave an MIC (Salmonella typhimurium [10]) of 31.2 µg/mL, an MIC (Pseudomonas aeruginosa [11]) of 31.2 µg/mL and an MIC (Acinetobacter baumannii [12]) of 15.6 µg/mL. For the same molecule, the MIC (Acinetobacter baumannii [13]) was 7.8 µg/mL, the MIC50 (Candida albicans) was 0.06 µg/mL and the MIC90 (Candida albicans) was 0.12 µg/mL. It also gave an MIC50 (Aspergillus niger) of 0.48 µg/mL, an MIC90 (Aspergillus niger) of 0.97 µg/mL and an MIC50 (Penicillium citrinum) of 1.95 µg/mL. The MIC90 (Penicillium citrinum) was 3.9 µg/mL, the MBC (Staphylococcus aureus [14]) was 0.97 µg/mL and the MBC (Staphylococcus aureus [15]) was 3.9 µg/mL. For the same molecule, the MBC (Enterococcus faecalis [16]) was 0.97 µg/mL, the MBC (Streptococcus pyogenes [17]) was 0.06 µg/mL and the MBC (Listeria monocytogenes [18]) was 3.9 µg/mL. For the same molecule, the MBC (Escherichia coli [19]) was 7.8 µg/mL, the MBC (Escherichia coli [20]) was 15.6 µg/mL and the MBC (Klebsiella pneumoniae [21]) was 15.6 µg/mL. The MBC (Klebsiella pneumoniae [22]) was 15.6 µg/mL, the MBC (Salmonella typhimurium [23]) was 31.2 µg/mL and the MBC (Pseudomonas aeruginosa [24]) was 31.2 µg/mL. The MBC (Acinetobacter baumannii [25]) was 15.6 µg/mL, the MBC (Acinetobacter baumannii [26]) was 15.6 µg/mL and the “growth inhibition (GI)” value (Staphylococcus aureus [27]) was “Active”. For the same molecule, the Activity (Staphylococcus aureus [28]) was 2.3 - 84%, the Activity (Staphylococcus aureus [29]) was “Dose-dependent effect” and the Activity (Staphylococcus aureus [30]) was “inactive”. The Activity (Staphylococcus aureus [31]) was “Active”, the Activity (Staphylococcus aureus [32]) was “Active” and the Activity (Staphylococcus aureus [33]) was “inactive”. The Activity (Staphylococcus aureus [34]) was “Active”, the Activity (Staphylococcus aureus [35]) was 14.54% and the Activity (Staphylococcus aureus [36]) was 66.27%. For the same molecule, the Activity (Staphylococcus aureus [37]) was 55.69%, the Activity (Staphylococcus aureus [38]) was 23.66% and the Activity (Staphylococcus aureus [39]) was “Active”. The Activity (Staphylococcus aureus [40]) was “Active”, the IC50 (HEK293) was 1 µg/mL and the IC50 (TERT-RPE1) was 15 µg/mL.
